The NIST ThermoML archive (doi:10.1016/j.fluid.2019.04.036)
Numbers after ± are expanded uncertainties.

Details: Liquid, Transpiration method

CCCCN(C=O)CCCC [N,N-dibutylformamide]
Details | vapor or sublimation pressure [kPa]
293.1 K | 0.0026 ± 0.00018
295.8 K | 0.00329 ± 0.00022
296.9 K | 0.00365 ± 0.00025
298 K | 0.004 ± 0.00027
298.7 K | 0.00421 ± 0.00028
298.9 K | 0.00438 ± 0.00028
299.3 K | 0.00469 ± 0.0003
301.4 K | 0.00534 ± 0.00038
304.5 K | 0.00695 ± 0.00048
304.6 K | 0.00705 ± 0.00049
304.8 K | 0.00709 ± 0.00049
308.3 K | 0.0097 ± 0.00066
308.7 K | 0.01006 ± 0.00069
309.9 K | 0.01103 ± 0.00074
310.7 K | 0.01193 ± 0.00079
311.6 K | 0.01265 ± 0.00084
312.5 K | 0.01383 ± 0.00092
313.3 K | 0.01469 ± 0.00097
314.7 K | 0.01666 ± 0.0011
315.1 K | 0.01677 ± 0.0011
315.3 K | 0.01776 ± 0.0012
318.2 K | 0.0217 ± 0.0014
318.4 K | 0.02183 ± 0.0014
320.5 K | 0.0256 ± 0.0016
321.1 K | 0.02589 ± 0.0017
322.6 K | 0.03097 ± 0.002
322.8 K | 0.03141 ± 0.002
323.8 K | 0.03251 ± 0.0021
325.8 K | 0.03894 ± 0.0025
326.8 K | 0.04037 ± 0.0026
329.4 K | 0.04901 ± 0.0031
329.6 K | 0.04927 ± 0.0031
334.7 K | 0.0724 ± 0.0046

CCN(C=O)CC [N,N-diethylformamide]
Details | vapor or sublimation pressure [kPa]
288.8 K | 0.0751 ± 0.0048
292.2 K | 0.0961 ± 0.006
295.1 K | 0.1173 ± 0.0075
300.5 K | 0.1677 ± 0.011
300.7 K | 0.169 ± 0.011
303.7 K | 0.211 ± 0.013
305.7 K | 0.2482 ± 0.015
310.7 K | 0.3265 ± 0.021
315.7 K | 0.4646 ± 0.029
320.8 K | 0.6274 ± 0.039
323.2 K | 0.7094 ± 0.044
325.8 K | 0.8534 ± 0.053
330.9 K | 1.093 ± 0.068
335.9 K | 1.479 ± 0.092
338.5 K | 1.733 ± 0.11
340.9 K | 1.948 ± 0.12
346 K | 2.46 ± 0.15
348.5 K | 2.893 ± 0.18
350.9 K | 3.209 ± 0.2
356.1 K | 4.164 ± 0.26

CCCN(C=O)CCC [N,N-dipropylformamide]
Details | vapor or sublimation pressure [kPa]
278.5 K | 0.00516 ± 0.00037
282.4 K | 0.00741 ± 0.00051
283.4 K | 0.00814 ± 0.00056
285.1 K | 0.00949 ± 0.00064
288.2 K | 0.01246 ± 0.00084
290.2 K | 0.01527 ± 0.001
292.2 K | 0.01766 ± 0.0012
294.8 K | 0.02239 ± 0.0014
295.8 K | 0.02392 ± 0.0016
296.5 K | 0.02608 ± 0.0017
298.4 K | 0.03075 ± 0.0019
299.4 K | 0.03131 ± 0.002
301.2 K | 0.03699 ± 0.0024
302.9 K | 0.04152 ± 0.0027
305.1 K | 0.05251 ± 0.0034
306.1 K | 0.05391 ± 0.0034
307.2 K | 0.05892 ± 0.0037
308.2 K | 0.06219 ± 0.004
310.4 K | 0.07592 ± 0.0048
311.3 K | 0.08121 ± 0.0052
313.4 K | 0.09479 ± 0.006
315.4 K | 0.113 ± 0.0071
316.4 K | 0.1145 ± 0.0072
318.5 K | 0.1321 ± 0.0084
319.4 K | 0.1476 ± 0.0097

CCCCNC=O [N-butylformamide]
Details | vapor or sublimation pressure [kPa]
297.1 K | 0.00293 ± 0.0002
298.2 K | 0.00321 ± 0.00022
299.3 K | 0.00349 ± 0.00023
301.2 K | 0.00422 ± 0.00028
304.2 K | 0.0056 ± 0.00041
307.2 K | 0.00731 ± 0.00051
310.2 K | 0.00912 ± 0.00062
314.1 K | 0.01307 ± 0.00086
316.2 K | 0.01498 ± 0.00099
317.8 K | 0.01763 ± 0.0011
318.2 K | 0.01802 ± 0.0012
320.2 K | 0.02208 ± 0.0014
323.1 K | 0.02695 ± 0.0017
326.2 K | 0.03461 ± 0.0022
329.1 K | 0.04093 ± 0.0026
331.2 K | 0.05017 ± 0.0032
334.2 K | 0.06336 ± 0.004
337.1 K | 0.07893 ± 0.005
340.2 K | 0.09365 ± 0.0059
343.2 K | 0.1151 ± 0.0073
346.2 K | 0.1403 ± 0.0088
349.1 K | 0.1719 ± 0.011
352.2 K | 0.208 ± 0.013

CN(C)C=O [dimethylformamide]
Details | vapor or sublimation pressure [kPa]
276.3 K | 0.1229 ± 0.0078
279.3 K | 0.1498 ± 0.0095
281.2 K | 0.1752 ± 0.011
283.1 K | 0.1994 ± 0.013
285.3 K | 0.2375 ± 0.015
289.3 K | 0.314 ± 0.02
291.3 K | 0.3569 ± 0.022
293.3 K | 0.4045 ± 0.025
296.3 K | 0.4849 ± 0.03
299.5 K | 0.5941 ± 0.037
302.2 K | 0.6949 ± 0.043
305.2 K | 0.847 ± 0.053
